Non-standard residues stand in square brackets, D forms with d. Residues, ends and D or L forms follow the SMILES beside them. Nle = CCCC[C@H](N)C(=O)O

Series [1] concerns calpain activity in HeLa cells. Nature of the series: Live cell imaging of calpain activity in HeLa cells. Format: cell-based. To be noted: for visualization of calpain activity in HeLa cells (fluorescence image): 30 minutes with 10 KM of probe, confocal microscope. On the procedure: The calpain activity in HeLa cells was visualized by the following procedure using Ac-LLY-HMRG.
(a) HeLa cells were incubated for one hour at 37° C. using FBS (BD Pharmingen stain buffer)-free DMEM (Dulbecco's modified Eagle's medium), and also incubated for 30 minutes by 10 KM of Ac-LLY-HMRG. Fluorescence images and transmission images were taken thereafter using a confocal microscope.
The calpain activity in HeLa cells was visualized by the following procedure using Ac-LM-HMRG.
(a) HeLa cells were incubated for one hour at 37° C. using FBS (BD Pharmingen stain buffer)-free DMEM (Dulbecco's modified Eagle's medium), (b) 1 KM ALLN (calpain selective inhibitor)-containing DMEM (FBS (−)), (c) 2 KM ALLN-containing DMEM (FBS (−)), and (d) 5 KM ALLN-containing DMEM (FBS (−)), and also incubated for 30 minutes by 10 KM of Ac-LM-HMRG. Fluorescence images and transmission images were taken thereafter using a confocal microscope. The results are shown in FIGS. 4a-4d (the left side of each drawing is the fluorescence image; the right side is the transmission image). The scale bar in the drawing is 50 μm.

In series [2] the test system is calpain-2 from porcine kidney. Nature of the series: In vitro enzyme assay using calpain (calpain 2). Format: biochemical. To be noted: probe 1 μM, 50 mM Tris buffer pH 7.4, 500 μM CaCl2, 25° C., excitation 495 nm, fluorescence 524 nm. How it is done: (§1) A calpain enzyme addition assay was conducted in Tris buffer under the following conditions using a probe synthesized and designed by the above method. As a result, the absorption and fluorescence intensity of Ac-LLY-HMRG increased about two-fold due to the enzymatic reaction, and it was confirmed to function as a calpain probe. The results are shown in FIG. 1a (using calpain 1) and FIG. 1b (using calpain 2).
(§2) A quantity of 3 μL of a DMSO solution (1 mM) of the probe was dissolved in 3 mL of 50 mM Tris buffer (pH 7.4) (containing 5 μM of CaCl2 for calpain 1 and 500 μM of CaCl2 for calpain 2) (final probe concentration: 1 μM). […] The excitation wavelength was 495 nm, and the fluorescence wavelength was 524 nm. […]
(§3) A calpain enzyme addition assay was conducted in Tris buffer using a probe synthesized and designed by the above method. As a result, the absorption and fluorescence intensity of Ac-LM-HMRG increased about four-fold due to the enzymatic reaction with calpain 2, and it was confirmed to function as a calpain probe. […]
(§4) A quantity of 3 μL of a DMSO solution (1 mM) of the probe was dissolved in 3 mL of 50 mM Tris buffer (pH 7.4) (containing 5 μM of CaCl2 for calpain 1 and 500 μM of CaCl2 for calpain 2) (final probe concentration: 1 μM). […] The excitation wavelength was 495 nm, and the fluorescence wavelength was 524 nm.

Series [3] concerns the target T1, calpain-1 from human erythrocytes (Homo sapiens, UniProt P07384).
T1 construct: calpain-1 from human erythrocytes; purchased 208713; host or cells: purified from human erythrocytes
T1 sequence (P07384 1-714): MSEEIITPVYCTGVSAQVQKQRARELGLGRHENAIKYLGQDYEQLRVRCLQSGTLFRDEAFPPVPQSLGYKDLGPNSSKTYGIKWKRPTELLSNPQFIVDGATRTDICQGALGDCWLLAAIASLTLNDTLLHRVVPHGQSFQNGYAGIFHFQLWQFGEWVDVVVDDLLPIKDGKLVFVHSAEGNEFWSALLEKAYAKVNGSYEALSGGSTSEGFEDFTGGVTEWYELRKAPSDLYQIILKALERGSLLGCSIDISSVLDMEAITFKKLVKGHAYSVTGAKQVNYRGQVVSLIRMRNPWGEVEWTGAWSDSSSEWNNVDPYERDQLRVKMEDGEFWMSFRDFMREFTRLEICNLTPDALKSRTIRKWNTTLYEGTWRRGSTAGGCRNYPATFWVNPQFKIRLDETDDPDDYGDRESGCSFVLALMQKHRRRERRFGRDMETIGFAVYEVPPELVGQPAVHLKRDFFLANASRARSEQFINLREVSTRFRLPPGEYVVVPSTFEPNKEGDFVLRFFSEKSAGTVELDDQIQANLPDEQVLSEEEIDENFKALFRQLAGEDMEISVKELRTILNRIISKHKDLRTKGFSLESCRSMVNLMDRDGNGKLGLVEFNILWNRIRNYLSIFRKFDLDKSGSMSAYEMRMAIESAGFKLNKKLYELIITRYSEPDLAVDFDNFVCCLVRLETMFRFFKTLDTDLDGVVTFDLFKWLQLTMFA
T1 sequence (P04632 1-268 partner): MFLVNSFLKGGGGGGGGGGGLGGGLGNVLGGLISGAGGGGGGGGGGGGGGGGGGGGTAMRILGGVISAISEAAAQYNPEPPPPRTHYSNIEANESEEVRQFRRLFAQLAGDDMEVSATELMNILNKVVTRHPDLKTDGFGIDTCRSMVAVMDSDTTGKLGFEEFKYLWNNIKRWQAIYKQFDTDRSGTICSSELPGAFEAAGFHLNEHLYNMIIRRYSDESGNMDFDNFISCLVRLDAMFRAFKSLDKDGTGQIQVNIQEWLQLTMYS
Nature of the series: In vitro enzyme assay using calpain (calpain 1). Format: biochemical. To be noted: probe 1 μM, 50 mM Tris buffer pH 7.4, 5 μM CaCl2, 25° C., excitation 495 nm, fluorescence 524 nm. On the procedure: as §1, §2, §3, §4

Series [4] in a line: Measurement of the optical properties. The conditions noted are these: 0.2 M sodium phosphate buffer of pH 2. Format: physicochemical. How it is done:
The optochemical properties of Ac-LLY-HMRG and Ac-LM-HMRG were measured in 0.2 M sodium phosphate buffer of pH 2.

The subject of series [5] is rat NMDA injury model. The experiment in a line: Rat NMDA injury model, fundus photography. Format: in vivo, SD rats. The conditions noted are these: Ac-LM-HMRG 2 mM, 2 μL to the eye. On the procedure: SD rats were placed under general anesthesia using Nembutal. N-methyl-D-aspartic acid (NMDA) (10 mM, 2 μL) or PBS was administered to the eye. The animals were again placed under anesthesia by ketamine-xylazine mixture four hours later, and Ac-LM-HMRG (2 mM, 2 μL) was administered to the eye. The fundus was photographed by an F10 (Nidec confocal biomicroscope).
In FIGS. 5 and 6, locations indicated by an arrow show nerve cells stained by HMRG.

Series [6] deals with mouse NMDA injury model. The experiment in a line: Flat-mounted retinas with mouse NMDA injury model. It is filed as in vivo, BL6/J mice. The conditions noted are these: Ac-LM-HMRG 0.5 mM, 1 μL to the eye. On the procedure: A study by mouse NMDA injury model was conducted with flat-mounted retinas. […] After one week, the mice were anesthetized by Nembutal, and 1 μL of 30 mM NMDA (PBS solution) or 1 μL of PBS was administered to the vitreous body in the eye. Two weeks later, the mice were again anesthetized by ketamine-xylazine, and Ac-LM-HMRG (0.5 mM, 1 μL, PBS solution) was administered to the eye. One hour after Ac-LM-HMRG administration, Sytox (registered trademark) Orange (for staining cells that have undergone cell death, […], 1 μL, PBS solution) (manufactured by Invitrogen) was administered to the vitreous body. Ten minutes later, the eyeball was removed, fixed for two hours by 4% paraformaldehyde (PFA), and flat-mounted retinas were prepared.

As for `CSCC[C@H](NC(=O)[C@H](CC(C)C)NC(C)=O)C(=O)Nc1ccc2c(c1)Oc1cc(N)ccc1C21OCc2ccccc21` (stereo partly shown) [Ac-LLY-HMRG], in series [1], the “visualization of calpain activity in HeLa cells (fluorescence image)” value is listed as “made it possible to monitor the calpain activity inside HeLa cells”. Besides, in series [2], the “increase of absorption and fluorescence intensity due to the enzymatic reaction” value (shortened to “increase”) is “about two-fold”. Further, the “increase” value in series [3] is reported as “about two-fold”. Further, in series [4], the Absmax is reported as 470 nm, the Emmax came to 526 nm and the Φn was found to be 0.19.
For the molecule `CCCC[C@@H](C=O)NC(=O)[C@H](CC(C)C)NC(=O)[C@H](CC(C)C)NC(C)=O` [ALLN, reference compound] (Ac-Leu-Leu-[Nle]-aldehyde), the “effect of inhibitor on fluorescence intensity within the cells” value in series [1] (for one hour at 37° C., then 10 KM of Ac-LM-HMRG for 30 minutes) is recorded as “decreased the fluorescence intensity within the cells”.
In series [4], `N=c1ccc2c(-c3ccccc3CO)c3ccc(N)cc3oc-2c1` [HMRG, reference compound] showed an Absmax of 501 nm, an Emmax of 524 nm and a Φn of 0.81.
For the molecule `CC(=O)N[C@@H](CC(C)C)C(=O)N[C@@H](CC(C)C)C(=O)N[C@@H](Cc1ccc(O)cc1)C(=O)Nc1ccc2c(c1)Oc1cc(N)ccc1C21OCc2ccccc21` (stereo partly shown) [Ac-LM-HMRG], the “staining of nerve cells in fundus photograph, NMDA group” value in series [5] (NMDA-administered rats, 30, 60, and 90 minutes after administration) is reported as “nerve cells were clearly stained”. In series [5] (PBS-administered rats, after 30, 60 and 90 minutes), the “staining of nerve cells in fundus photograph, PBS group” value is reported as “nerve cells were only very slightly stained”. Besides, the “visualization of calpain activity in HeLa cells (fluorescence image)” value in series [1] was “made it possible to monitor the calpain activity inside HeLa cells”. Further, the “increase” value in series [2] is on record as “about four-fold”. For the same molecule, in series [6] (NMDA group mice), the “staining of flat-mounted retina, NMDA group” value was “calpain activity was detected”. In addition, in series [6] (PBS group mice), the “staining of flat-mounted retina, PBS group” value is recorded as “not found”. In series [4], this molecule came in with an Absmax of 470 nm, an Emmax of 529 nm and a Φn of 0.32.

The values above are taken from patent publication US20180162871A1, “FLUORESCENT PROBE FOR DETECTING CALPAIN ACTIVITY” (The University of Tokyo, priority 2015, published 2018).
